Laboratory results as given in paper PMC5008386, “Oridonin, a novel lysine acetyltransferases inhibitor, inhibits proliferation and induces apoptosis in gastric cancer cells through p53- and caspase-3-mediated mechanisms” (Oncotarget, 2016).

Molecular target: T1, P300 (Homo sapiens, UniProt Q09472)
T1 construct: gene EP300
Experiment: fluorogenic P300 acetyltransferase assay; also [3H]-acetyl CoA autoradiography and BLI (Octet RED96) with biotinylated oridonin
Type: biochemical

T1 sequence (Q09472 2-2414): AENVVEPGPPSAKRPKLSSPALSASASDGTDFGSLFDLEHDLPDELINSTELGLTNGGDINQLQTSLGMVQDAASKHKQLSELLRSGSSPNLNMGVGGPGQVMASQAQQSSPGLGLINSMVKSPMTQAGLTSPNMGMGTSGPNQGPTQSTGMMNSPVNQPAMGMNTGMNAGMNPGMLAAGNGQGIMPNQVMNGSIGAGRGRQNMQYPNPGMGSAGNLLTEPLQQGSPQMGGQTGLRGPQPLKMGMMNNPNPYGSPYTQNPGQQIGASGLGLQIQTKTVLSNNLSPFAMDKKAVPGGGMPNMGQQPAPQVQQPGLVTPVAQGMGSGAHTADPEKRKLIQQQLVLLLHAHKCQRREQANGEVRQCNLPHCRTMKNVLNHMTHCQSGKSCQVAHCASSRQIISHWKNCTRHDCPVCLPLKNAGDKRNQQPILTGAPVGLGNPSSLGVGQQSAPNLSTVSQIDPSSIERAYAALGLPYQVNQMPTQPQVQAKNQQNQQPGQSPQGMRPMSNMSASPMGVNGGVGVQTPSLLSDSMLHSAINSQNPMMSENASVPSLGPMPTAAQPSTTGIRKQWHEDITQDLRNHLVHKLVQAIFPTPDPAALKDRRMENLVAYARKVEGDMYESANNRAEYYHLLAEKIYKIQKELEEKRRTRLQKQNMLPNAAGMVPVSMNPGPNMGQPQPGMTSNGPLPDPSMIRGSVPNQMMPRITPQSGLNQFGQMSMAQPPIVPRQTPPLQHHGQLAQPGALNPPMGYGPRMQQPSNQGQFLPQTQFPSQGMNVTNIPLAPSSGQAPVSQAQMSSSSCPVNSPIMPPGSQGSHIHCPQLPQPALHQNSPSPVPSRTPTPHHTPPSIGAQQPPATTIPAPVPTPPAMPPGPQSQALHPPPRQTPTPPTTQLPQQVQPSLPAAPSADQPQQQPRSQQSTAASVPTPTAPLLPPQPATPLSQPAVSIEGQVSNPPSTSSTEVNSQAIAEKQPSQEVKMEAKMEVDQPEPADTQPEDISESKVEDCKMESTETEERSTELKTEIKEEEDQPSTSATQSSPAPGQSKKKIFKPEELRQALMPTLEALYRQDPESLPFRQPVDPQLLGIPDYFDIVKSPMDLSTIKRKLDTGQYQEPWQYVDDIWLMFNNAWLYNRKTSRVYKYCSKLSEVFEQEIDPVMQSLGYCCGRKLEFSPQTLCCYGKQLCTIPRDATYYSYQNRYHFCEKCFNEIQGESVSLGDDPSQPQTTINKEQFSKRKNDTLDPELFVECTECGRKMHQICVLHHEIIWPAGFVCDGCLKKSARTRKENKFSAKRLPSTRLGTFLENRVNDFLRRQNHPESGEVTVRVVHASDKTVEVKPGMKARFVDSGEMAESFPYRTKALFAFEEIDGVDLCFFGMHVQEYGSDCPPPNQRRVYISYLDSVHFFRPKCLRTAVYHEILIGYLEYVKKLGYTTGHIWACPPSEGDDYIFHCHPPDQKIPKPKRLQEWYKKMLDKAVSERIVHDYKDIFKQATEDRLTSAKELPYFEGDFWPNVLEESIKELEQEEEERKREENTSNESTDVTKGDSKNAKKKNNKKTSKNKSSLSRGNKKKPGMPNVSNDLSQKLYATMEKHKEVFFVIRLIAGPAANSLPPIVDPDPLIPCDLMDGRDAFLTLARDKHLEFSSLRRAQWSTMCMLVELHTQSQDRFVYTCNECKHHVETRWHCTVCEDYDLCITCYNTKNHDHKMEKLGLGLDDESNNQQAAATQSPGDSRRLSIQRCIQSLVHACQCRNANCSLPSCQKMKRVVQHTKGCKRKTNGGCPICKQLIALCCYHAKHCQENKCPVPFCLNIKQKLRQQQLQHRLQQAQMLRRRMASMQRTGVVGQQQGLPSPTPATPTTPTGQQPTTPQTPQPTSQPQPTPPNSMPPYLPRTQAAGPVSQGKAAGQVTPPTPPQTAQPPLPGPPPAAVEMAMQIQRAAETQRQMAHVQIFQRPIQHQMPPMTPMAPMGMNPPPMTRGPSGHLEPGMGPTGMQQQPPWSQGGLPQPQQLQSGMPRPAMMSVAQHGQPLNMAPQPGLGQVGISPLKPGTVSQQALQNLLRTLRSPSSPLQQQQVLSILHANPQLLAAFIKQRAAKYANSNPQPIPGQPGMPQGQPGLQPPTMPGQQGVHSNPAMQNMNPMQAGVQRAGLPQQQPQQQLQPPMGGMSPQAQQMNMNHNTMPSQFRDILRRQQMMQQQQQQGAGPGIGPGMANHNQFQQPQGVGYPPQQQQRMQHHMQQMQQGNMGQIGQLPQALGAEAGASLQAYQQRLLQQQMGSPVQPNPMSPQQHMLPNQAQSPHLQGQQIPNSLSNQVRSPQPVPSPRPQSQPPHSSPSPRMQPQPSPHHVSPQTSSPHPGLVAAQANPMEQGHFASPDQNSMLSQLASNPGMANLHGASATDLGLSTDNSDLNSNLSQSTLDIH

C=C1C(=O)[C@]23[C@H](O)[C@H]1CC[C@H]2[C@@]12CO[C@]3(O)[C@@H](O)[C@@H]1C(C)(C)CC[C@@H]2O [oridonin]
IC50: ~5 µM
